Article PMC2362650, “Phase I and pharmacokinetic study of the topoisomerase II catalytic inhibitor fostriecin” (British Journal of Cancer, 1999)

Test: Phase I study: toxicity graded with NCI common toxicity criteria in patients
Assay type: in vivo, human
Text: Fostriecin (CI-920) is a topoisomerase (topo) II catalytic activity inhibitor (Boritzki et al, 1988) (Figure 1). This novel class of topo II-targeting drugs is considered of potential value for treatment of patients with tumours resistant to classic topo II poisons, including anthracyclines and podophyllotoxins (Cummings and Smyth, 1993). The nuclear enzyme topo II is essential for the regulation of DNA conformation (reviewed in Osheroff et al, 1991). Central in its action is the formation of a complex with DNA. Stabilization of this complex by topo II poisons induces DNA damage and cell death (Froelich-Ammon and Osheroff, 1995). Decreased complex formation due to decreased topo II levels is considered to be an important mechanism of tumour-resistance to topo II poisons (Beck and Danks, 1991). The topo II catalytic inhibitor fostriecin is expected to have increased activity against tumour cells with low topo II levels and this was confirmed in in vitro studies (De Jong et al, 1991). […] Because of increased toxi- city of fostriecin in dogs compared to mice, a dose below one-third of the one-tenth mouse equivalent LD10, 2 mg m-2 day-1, was chosen as starting dose in humans (Clinical Brochure Fostriecin, 1991). […] We also performed an analysis of the human pharmacokinetics of fostriecin and ex vivo experiments to investigate if the plasma drug concentrations achieved were sufficient to inhibit a tenipo- side-resistant tumour cell line. The maximum tolerated dose (MTD) of fostriecin could not be established because drug supply was stopped prematurely. However, results of this study may provide a basis for continued clinical development of this agent. PATIENTS AND METHODS Patient selection, drug administration and evaluation Patient eligibility criteria were: histologically confirmed diagnosis of a solid tumour, no longer amenable to established forms of treatment; age 18-75 years; Eastern Cooperative Oncology Group (ECOG) performance status 2; life expectancy 12 weeks; no Phase I and pharmacokinetic study of the topoisomerase II catalytic inhibitor fostriecin RS de Jong1, NH Mulder1, DRA Uges2, DTh Sleijfer1, FJP Hoppener4, HJM Groen3, PHB Willemse1, WTA van der Graaf1 and EGE de Vries1 Departments of 1Medical Oncology, 2Pharmacy and Toxicology, and 3Pulmonary Diseases, University Hospital Groningen, The Netherlands; 4EORTC New Drug Development Office, Amsterdam, The Netherlands Summary We conducted a phase I and pharmacokinetic study of the topoisomerase II catalytic inhibitor fostriecin. Fostriecin was administered intravenously over 60 min on days 1-5 at 4-week intervals. Dose was escalated from 2 mg m-2 day-1 to 20 mg m-2 day-1 in 20 patients. Drug pharmacokinetics was analysed with high performance liquid chromatography with UV-detection. Plasma collected during drug administration was tested in vitro for growth inhibition of a teniposide-resistant small-cell lung cancer (SCLC) cell line. The predominant toxicities were elevated liver transaminases (maximum common toxicity criteria (CTC) grade 4) and serum creatinine (maximum CTC grade 2). […] Duration of elevated alanine-amino transferase (ALT) was dose-limiting in one patient at 20 mg m-2. Other frequent toxicities were grade 1-2 nausea/vomiting, fever and mild fatigue. […] A metabolite, most probably dephosphorylated fostriecin, was detected in plasma and urine. […] However, further escalation seems possible and is warranted to achieve potentially effective drug levels. Fostriecin has a short plasma half-life and longer duration of infusion should be considered. […]

[1] = 12.2 mg m-2, 3 patients/8 courses
[2] = 20 mg m-2, 2 patients/4 courses
[3] = one patient at 20 mg m-2 after course 2

C[C@@](O)(/C=C/[C@H]1CC=CC(=O)O1)[C@@H](C[C@@H](O)\C=C/C=C\C=C\CO)OP(=O)(O)O [fostriecin]
33: number of courses with nausea/vomiting (grade 1-2) (of the 42 courses at full dose)
0: CTC-grade 1 ALT: courses causing toxicity, all full-dose courses [1] | CTC-grade 1 ALT: patients developing toxicity in first course [1] | CTC-grade 1 AST: courses causing toxicity, all full-dose courses [1] | CTC-grade 1 AST: patients developing toxicity in first course [1] | CTC-grade 2 ALP: patients developing toxicity in first course [1] | CTC-grade 2 ALT: patients developing toxicity in first course [1] | CTC-grade 2 AST: patients developing toxicity in first course [1] | CTC-grade 3 bilirubin: patients developing toxicity in first course [1] | CTC-grade 1 ALT: courses causing toxicity, all full-dose courses [2] | CTC-grade 1 ALT: patients developing toxicity in first course [2] | CTC-grade 1 AST: courses causing toxicity, all full-dose courses [2] | CTC-grade 1 AST: patients developing toxicity in first course [2] | CTC-grade 2 AST: patients developing toxicity in first course [2] | CTC-grade 2 GGT: courses causing toxicity, all full-dose courses [2] | CTC-grade 2 GGT: patients developing toxicity in first course [2]
11: number of patients with nausea/vomiting (grade 1-2) during course 1 (20 patients) | number of courses with fever > 38C (grade 2) (human, in vivo, intravenous)
Eight: number of patients with mild fatigue (grade 1-2) (during drug administration and the week thereafter)
1-2 weeks: time to resolution of renal toxicities after last dose of each course (human, in vivo, intravenous)
6: CTC-grade 2 bilirubin: courses causing toxicity, all full-dose courses [1] | CTC-grade 3 ALT: courses causing toxicity, all full-dose courses [1]
28 g/L: serum albumin (hypoalbuminaemia) [3]
2: CTC-grade 1 GGT: courses causing toxicity, all full-dose courses [1] | CTC-grade 2 GGT: courses causing toxicity, all full-dose courses [1] | CTC-grade 2 bilirubin: patients developing toxicity in first course [1] | CTC-grade 2 creatinine: patients developing toxicity in first course [1] | CTC-grade 3 ALT: patients developing toxicity in first course [1] | CTC-grade 3 GGT: courses causing toxicity, all full-dose courses [1] | CTC-grade 1 ALP: courses causing toxicity, all full-dose courses [2] | CTC-grade 1 ALP: patients developing toxicity in first course [2] | CTC-grade 1 GGT: courses causing toxicity, all full-dose courses [2] | CTC-grade 2 ALT: courses causing toxicity, all full-dose courses [2] | CTC-grade 2 creatinine: courses causing toxicity, all full-dose courses [2] | CTC-grade 3 ALT: courses causing toxicity, all full-dose courses [2] | CTC-grade 3 AST: courses causing toxicity, all full-dose courses [2] | CTC-grade 3 GGT: courses causing toxicity, all full-dose courses [2] | maximum CTC grade of elevated serum creatinine (human, serum, intravenous)
not affected: PT, fibrinogen, anti-thrombin III and cholinesterase levels (six patients (13 courses) at 10-20 mg m-2, days 0 and 5)
has not been reached: maximum tolerated dose (MTD) (escalation stopped at 20 mg m-2)
three: number of patients with grade 2 LDH increases (human, in vivo)
Fourteen: number of patients with grade 1-2 anaemia (human, in vivo)
3 days: day of serum creatinine peak (median)
seven: number of patients with microscopic haematuria (grade 1) (doses 6.6 mg m-2 (and above)) | number of patients with transient proteinuria grade 1 (doses 10 mg m-2 (and above)) | number of patients with hyperglycaemia grade 1-2 and/or hypoglycaemia grade 1 (human, in vivo)
4: CTC-grade 3 AST: courses causing toxicity, all full-dose courses [1] | maximum CTC grade of elevated liver transaminases (human, blood, intravenous)
14: number of patients with increase of body temperature during course 1 (human, in vivo, intravenous, 1 course (days 1-5, 4-week interval))
≤ 3 weeks: time to resolution of ALT and AST elevations after drug administration (all patients)
six: number of patients with fever > 38C (grade 2) (human, in vivo)
2.5 days: day of ALT peak per course (median)
3: CTC-grade 1 ALP: courses causing toxicity, all full-dose courses [1] | CTC-grade 2 AST: courses causing toxicity, all full-dose courses [1] | CTC-grade 2 creatinine: courses causing toxicity, all full-dose courses [1] | CTC-grade 3 AST: patients developing toxicity in first course [1]
3.5 days: median duration of grade 3 ALT (range 1-9 days)
17: number of patients with occasional increase of body temperature (human, in vivo, intravenous)
5: CTC-grade 1 creatinine: courses causing toxicity, all full-dose courses [1]
one: number of patients with dose-limiting ALT elevation (grade 3 persisting > 7 days) (20 mg m-2) | number of patients with reversible thrombocytopenia (grade 2) (20 mg m-2) | number of patients with transient proteinuria grade 2 (doses 10 mg m-2 (and above)) | number of patients with fever > 39C (human, in vivo) | number of patients with grade 2 hyponatraemia (human, in vivo) | number of patients with grade 2 oedema (human, in vivo)
four: number of patients with reversible increases of bilirubin (human, in vivo)
No leuco- or neutropenia: leuco- or neutropenia (human, in vivo)
3.3 g 24 h-1: maximum transient proteinuria [3]
1: CTC-grade 1 ALP: patients developing toxicity in first course [1] | CTC-grade 1 GGT: patients developing toxicity in first course [1] | CTC-grade 1 creatinine: patients developing toxicity in first course [1] | CTC-grade 2 ALP: courses causing toxicity, all full-dose courses [1] | CTC-grade 2 ALT: courses causing toxicity, all full-dose courses [1] | CTC-grade 2 GGT: patients developing toxicity in first course [1] | CTC-grade 3 GGT: patients developing toxicity in first course [1] | CTC-grade 3 bilirubin: courses causing toxicity, all full-dose courses [1] | CTC-grade 4 ALT: courses causing toxicity, all full-dose courses [1] | CTC-grade 4 ALT: patients developing toxicity in first course [1] | CTC-grade 1 GGT: patients developing toxicity in first course [2] | CTC-grade 1 creatinine: courses causing toxicity, all full-dose courses [2] | CTC-grade 1 creatinine: patients developing toxicity in first course [2] | CTC-grade 2 ALT: patients developing toxicity in first course [2] | CTC-grade 2 AST: courses causing toxicity, all full-dose courses [2] | CTC-grade 2 creatinine: patients developing toxicity in first course [2] | CTC-grade 3 ALT: patients developing toxicity in first course [2] | CTC-grade 3 AST: patients developing toxicity in first course [2] | CTC-grade 3 GGT: patients developing toxicity in first course [2]
